# Like-named read-outs stand apart in the source and are kept apart here.
# Tests used:
# human NPY Y5 receptor = target: T1, human NPY Y5 receptor (Homo sapiens, UniProt Q15761); assay: NPY binding inhibition test ([125I]peptide YY binding to membranes of NPY Y5 receptor expression cells); conditions: [125I]peptideYY, membranes of NPY Y5 receptor expressing cells, 25° C., 2 hours; read-out: 50% Inhibitory Concentration (IC50) against specific peptide YY binding
# T1 construct: expressed in transfected cells; host or cells: COS-7, CHO and LM(tk-)
# T1 sequence (Q15761 1-445): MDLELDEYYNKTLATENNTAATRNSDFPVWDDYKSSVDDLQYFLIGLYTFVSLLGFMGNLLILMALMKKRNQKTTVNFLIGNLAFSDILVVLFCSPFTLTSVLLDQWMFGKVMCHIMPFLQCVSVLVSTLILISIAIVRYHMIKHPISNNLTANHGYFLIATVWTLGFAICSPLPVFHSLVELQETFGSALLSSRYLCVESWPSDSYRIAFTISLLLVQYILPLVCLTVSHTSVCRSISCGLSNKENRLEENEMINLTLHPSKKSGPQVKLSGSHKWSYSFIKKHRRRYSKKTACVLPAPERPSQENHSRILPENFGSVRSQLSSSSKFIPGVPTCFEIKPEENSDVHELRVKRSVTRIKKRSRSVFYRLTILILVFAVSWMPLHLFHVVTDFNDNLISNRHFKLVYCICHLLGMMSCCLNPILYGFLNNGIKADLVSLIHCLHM
# Description: Pharmacological Test 1 (NPY Binding Inhibition Test)
# cDNA sequence encoding human NPY Y5 receptor (c.f. International patent publication WO96/16542) was cloned into expression vectors pcDNA3, pRc/RSV (made by Invitrogen Inc.) and pCI-neo (made by Promega Inc.). The expression vectors thus obtained were transfected to host cells COS-7, CHO and LM(tk−) (American Type Culture Collection) by cationic lipid method (Proceedings of the National Academy of Sciences of the United States of America, vol. 84: p. 7413(1987)) to give NPY Y5 receptor expression cells.
# A membrane sample prepared from the cells which expressed NPY Y5 receptor was incubated together with a test compound and [^125I]peptideYY (made by NEN) (20,000 cpm) in an assay buffer (25 mM Tris buffer, pH7.4, containing 10 mM magnesium chloride, 1 mM phenylmethylsulfonyl fluoride, 0.1% bacitracin and 0.5% bovine serum albumin) at 25° C. for 2 hours, then filtered through a glass filter GF/C and washed with 5 mM Tris buffer (pH7.4) containing 0.3% BSA. The radioactivity of the cake on the glass filter was measured. Non-specific binding was measured in the presence of 1 μM peptide YY, and a 50% Inhibitory Concentration (IC50) of the test compound against specific peptide YY binding was determined (Endocrinology, vol. 131: p. 2090(1992)).
# Pharmacokinetics test = type: in vivo; conditions: rat, plasma, male SD rats, overnight fasting
# Protocol: Pharmacological Test 3 (Pharmacokinetics Test)
# A test compound was orally or intravenously administered to male SD rats (7–10 weeks old, 200–400 g) under the overnight fasting condition. About 100 μL of blood was collected from the tail vein by heparinized capillary at designated time. The blood was centrifuged (4° C., 6,000 r.p.m., 10 minutes) to obtain the plasma. Three-fold amount of ethanol containing an internal standard was added to plasma. The mixture was stirred, allowed to stand at −20° C. for 20 minutes, and then centrifuged (4° C., 10,000 r.p.m., 10 minutes). The supernatant was analyzed by LC/MS/MS, and the concentration of the test compound in the plasma was measured using a relative calibration curve.
# [1] = Brain/cerebrospinal fluid transport test; type: in vivo, male SD rats; conditions: rat, one hour after oral administration (10 mg/kg); for concentration at 1 h: male, SD
# Protocol: Pharmacological Test 4 (Brain/Cerebrospinal Fluid Transport Test)
# A test compound was orally or intravenously administered to male SD rats (7–10 weeks old, 200–400 g), and whole blood was collected from the abdominal aorta using a heparin-treated syringe under the ether anesthesia at designated time. Then, the head skin was cut out, and a dental 30 G needle was inserted between the cervical vertebrae, and it was further inserted into the cavum subarachnoideum. After 50 to 100 μL cerebrospinal fluid had been collected by a 1 ml-syringe through a tube connected to the dental 30 G needle, the brain was extracted. The blood sample was centrifuged (4° C., 6,000 r.p.m., 10 minutes) to obtain the plasma, and 3-fold amount of ethanol containing an internal standard was added and stirred. The brain sample was homogenized after addition of 2 ml water, and an aliquot of the homogenate was taken and 3-fold amount of ethanol containing an internal standard was added and stirred. The cerebrospinal fluid was stirred after adding 3-fold amount of ethanol containing an internal standard. These samples were allowed to stand at −20° C. for 20 minutes, and then centrifuged (4° C., 12,000 g, 10 minutes). The supernatant was analyzed by LC/MS/MS, and the concentration of the test compound in the plasma, brain, and cerebrospinal fluid were measured by the method using a relative calibration curve.
# general symptoms = assay: General symptoms observation; type: in vivo; conditions: mice, 100 mg/kg orally, observed 0.5 to 24 hours after administration
# Protocol: Pharmacological Test 5 (General Symptoms Observation)
# A test compound was orally administered to male ICR mice (4–6 weeks old) under the overnight fasting condition, and general symptoms were observed 0.5, 1, 2, 3, 4 and 24 hours after the administration. The following 28 items were observed: stereotypy, glooming, vocalization, exploratory behavior, motor coordination, Straub tail reaction, tremor, convulsion, body posture, piloerection, writhing, palpebral opening, exophthalmos, skin color, respiratory rate, urination, defecation, salivation, lacrimation, startle response, aggression, grip strength, corneal reflex, body temperature, body tone, righting reflex, pain response and death.
# [2] = test system: gastrointestinal motility; assay: Gastrointestinal motility (charcoal transportation); type: in vivo, male ICR mice; conditions: mice, 100 mg/kg orally, charcoal one hour later
# Protocol: Pharmacological Test 6 (Gastrointestinal Motility) A test compound was orally administered to male ICR mice (4–6 weeks old) under the overnight fasting condition and, one hour later, 0.5% charcoal suspension (0.1 ml/10 g body weight) was orally administered. One hour after the administration of the charcoal, gastrointestinal tracts of the animals were removed, and length of the intestine from pylorus to the point to which charcoal reached was measured to obtain charcoal transportation ratio.
# canine cardiac function = assay: Canine cardiac function; type: in vivo, male beagle dogs; conditions: anesthetized beagle dogs, 3 mg/kg and 10 mg/kg via vein cannula, up to 60 minutes
# Description: Pharmacological Test 7 (Canine Cardiac Function)
# The left femoral artery and vein of male beagle dogs (age: 9 months or older, weight: 10–15 kg) under anesthesia with isoflurane and artificial respiration were respectively cannulated for determination of arterial pressure and for administration of drugs. A tip catheter pressure transducer was placed in the left ventricle from the left carotid artery for determination of the left ventricular pressure. A Swan-Ganz catheter was placed in the pulmonary artery from the jugular vein via the right ventricle for determination of the pulmonary artery pressure, right atrium pressure and cardiac output. A transit doppler flow probe was attached to the right femoral artery for determination of the femoral blood flow. After completion of the operation, a solvent was administered from the cannula in the vein, followed by administration of a drug to be tested. Each parameter was determined just after the administration, and 10, 20, 30 and 60 minutes after the administration. The parameters determined were artery pressure, left ventricular pressure, pulmonary artery pressure, right atrium pressure, cardiac output, femoral blood flow, heart rate, electrocardiogram, left ventricular contractile performance (first differential of the left ventricular pressure), total peripheral vascular resistance, body temperature and arterial blood gas.
smiles,measurement,setting,value
"C[C@@H]1NC(c2cccc(=O)[nH]2)=N[C@]1(c1ccc(F)cc1)c1ccnc(F)c1 [Example 1, 6-[(4R,5S)-4-(4-fluorophenyl)-4-(2-fluoro-4-pyridyl)-5-methyl-2-imidazolin-2-yl]-2(1H)-pyridinone]",IC50,human NPY Y5 receptor,2.8 nM
same,bioavailability,Pharmacokinetics test; oral or intravenous administration,51%
same,half-life,Pharmacokinetics test,2.5 h
same,concentration at 1 h,"[1]; cerebrospinal fluid, read-out: concentration in the cerebrospinal fluid",106 nM
same,concentration at 1 h,"[1]; plasma, read-out: concentration in the plasma",2790 nM
same,concentration in the brain,[1],0.29 nmol/g
same,effect on general symptoms (28 items),general symptoms,did not affect
same,effect on gastrointestinal motility (charcoal transportation ratio),[2],did not affect
same,effect on canine cardiac function,canine cardiac function,did not affect
